# Experimental data taken from PubChem BioAssay (NCI).
#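 Cells were grown in 96-well plates and exposed to each compound for 48 hours at five concentrations; endpoints were interpolated linearly between bracketing concentrations, or set to the highest concentration if not reached. The concentration for 50% growth inhibition is given as GI50. TGI marks complete inhibition of growth.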
# How the values were obtained:
# Assay in all cases: growth of human tumour cells (NCI), 48 h
# [1] = system: BT-549 breast
# [2] = system: HS 578T breast
# [3] = system: PC-3 prostate
# [4] = system: T-47D breast
# [5] = system: MDA-N
# [6] = system: DLD-1 colon
# [7] = system: DMS 114 small cell lung
# [8] = system: HOP-18 NSCLC
SMILES,GI50 [1] [µM],TGI [1] [µM],GI50 [2] [µM],TGI [2] [µM],GI50 [3] [µM],TGI [3] [µM],GI50 [4] [µM],TGI [4] [µM],TGI [5] [µM],TGI [6] [µM],TGI [7] [µM],TGI [8] [µM],GI50 [5] [µM]
Cc1noc(C)c1-c1cnc2c(-c3ccc(C(=O)O)cc3)cn([C@@H](C)c3ccccn3)c2c1,11.8,> 100,0.188,> 100,3.28,> 100,0.623,> 100,–,–,–,–,–
Oc1c(O)c(Cl)c(Cl)c(Cl)c1Cl,4.51,31.5,3.75,23,3.43,18.1,3.26,11.3,–,–,–,–,–
COc1cc(NC(C)CCCNC(C)C)c2ncccc2c1OC (stereo unspecified),–,–,4.74,60.7,–,–,17,> 100,–,–,–,–,–
CCN(CC)c1nc(NC2CCCCC2)c2nc(N(CC)CC)nc(NC3CCCCC3)c2n1,–,> 100,–,> 100,–,> 100,–,> 100,> 100,–,–,–,–
O=C(O)Cn1ccc2ccccc21,> 100,> 100,> 100,> 100,> 100,> 100,> 100,> 100,–,–,–,–,–
Cc1ccccc1N=Nc1c(-c2ccccc2)nn(C(=O)CC(=O)Nc2cccc(Cl)c2)c1-c1ccccc1,–,–,–,–,–,–,–,–,–,> 31.6,22.1,> 31.6,–
S=C(CSc1ccccc1)Nc1cccc2ccccc12,–,> 100,–,> 100,–,> 100,–,> 100,> 100,–,–,–,–
CCOc1ccc(C(C)=O)cc1NC(=O)c1cccc(-c2nnn(CC)n2)c1,0.961,> 100,0.996,> 100,0.481,> 100,–,–,–,–,–,–,–
C=C(CN1c2ccccc2Sc2ccccc21)c1ccc(C(=O)Nc2ccccc2N)cc1,> 27.3,> 100,> 100,> 100,5.07,> 100,6.14,> 100,–,–,–,–,–
Cc1cc2c(cc1CO)N1Cc3cc(C)c(CO)cc3N(C2)C1,–,–,–,–,–,–,–,–,–,> 100,> 100,> 100,–
Cc1c(C)c2c(c(C)c1OCC(=O)O)CC[C@@](C)(CCC[C@@H](C)CCC[C@@H](C)CCCC(C)C)O2,71.7,151,89,229,34.9,106,51.7,171,–,–,–,–,–
O=C(Oc1ccccc1)C(Br)C(Br)c1ccccc1 (stereo unspecified),11.7,25.6,2.87,8.12,14.9,30.1,2.62,6.23,–,–,–,–,–
C=Cc1c(C)c2cc3[nH]c(cc4nc(cc5nc(cc1[nH]2)C(C)=C5CCC(=O)N(CC)CC)C(CCC(=O)N(CC)CC)=C4C)c(C)c3C=C,–,–,–,–,–,–,–,–,–,> 100,–,–,–
O=C(/C=C\n1cnc(-c2cc(C(F)(F)F)cc(C(F)(F)F)c2)n1)N1CC(F)(F)C1,0.0336,0.223,0.409,5.34,0.277,4.54,0.634,> 21.6,–,–,–,–,–
Cn1cc(C2=C(c3ccccc3C(F)(F)F)C(=O)NC2=O)c2ccccc21,11,> 25,5.36,> 25,6.13,> 25,7.68,> 25,–,–,–,–,–
COc1ccc2[nH]c(C(=O)OCc3ccc4cccc(O)c4n3)cc2c1,1.69,3.74,1.78,4.6,0.247,1.32,–,–,–,–,–,–,–
OC(COc1ccccc1)CN1CCCCC1 (stereo unspecified),–,> 100,–,> 100,–,> 100,–,> 100,> 100,–,–,–,–
O=C(/C(=N/Nc1ccccc1)c1ccc([N+](=O)[O-])cc1)c1ccc([N+](=O)[O-])cc1,–,–,–,–,–,–,–,–,–,> 100,> 100,> 100,–
O=C(Nc1ccc2c(c1)OCCO2)C(=O)c1c[nH]c2ccccc12,3.48,38.1,1.72,22.9,2.17,> 100,9.86,> 100,–,–,–,–,–

SMILES,GI50 [1] [µM],TGI [1] [µM],GI50 [2] [µM],TGI [2] [µM],GI50 [3] [µM],TGI [3] [µM],GI50 [4] [µM],TGI [4] [µM],TGI [5] [µM],TGI [6] [µM],TGI [7] [µM],TGI [8] [µM],GI50 [5] [µM]
COc1cc(-c2nccc3cc4c(cc23)OCO4)cc(OC)c1OC,16.6,> 100,1.64,9.57,4.25,> 100,5.25,> 100,–,–,–,–,–
COc1cc(Nc2ncnc(Nc3ccc4c(n3)NC(=O)C(C)(C)O4)n2)cc(OC)c1OC,–,–,0.149,0.66,1.46,> 100,1.18,> 100,–,–,–,–,–
CCCCN1C(=O)/C(=c2\sc3n(c2=O)C2C(NN=3)N(CC)C(=O)N2CC)c2ccccc21 (stereo unspecified),1.76,9.19,0.749,6.04,–,–,–,–,–,–,–,–,–
O=c1c2cccnc2ncn1CCCN1CCCC1,–,–,–,–,–,–,–,–,–,> 100,> 100,–,–
Cn1cncc1-c1c(F)cncc1NC(=O)c1c(N)nn2cc(F)cnc12,0.838,15.4,1.21,24.2,3.41,> 100,4.32,> 100,–,–,–,–,–
NC(CSC(c1ccccc1)(c1ccccc1)c1ccc(F)cc1)C(=O)O (stereo unspecified),1.64,86.8,0.239,0.841,0.4,> 35.9,0.365,25.5,–,–,–,–,–
COc1cc2c3c(c1OC)C(=O)C=C3N(S(=O)(=O)c1ccc(C)cc1)CC2,–,–,–,–,–,–,–,–,–,> 100,> 100,> 100,–
COc1ccc(-c2nsc3c2NC(=O)CC3c2cccc(Cl)c2)cc1 (stereo unspecified),7.51,> 100,2.98,> 65.4,2.12,> 100,3.54,> 100,–,–,–,–,–
C=C(CO)CC(/C=C(\C)CC/C=C(\C)CCl)OC(C)=O (stereo unspecified),–,–,–,–,–,–,–,–,–,> 100,> 100,–,–
COc1ccc(-c2nn3ncccc3c2-c2ccnc(Nc3ccc4c(c3)OCCO4)n2)cc1,12.8,> 25,10.2,> 25,9.12,> 25,4.58,> 25,–,–,–,–,–
Cc1nc(Sc2nc3ccc([N+](=O)[O-])cc3s2)sc1C,0.989,2.85,3.03,16.4,1.15,7.63,1.32,6.17,–,–,–,–,–
CC12OC(C(=O)C13CCC3)C1C(=O)c3ccc4c(ccc5ccccc54)c3C(=O)C12 (stereo unspecified),18.3,48.4,16,76.1,7.61,28.8,3.22,11.2,–,–,–,–,–
CCOC(=O)C#Cc1c(C(=O)OCC)nnn1[C@@H]1O[C@H](CO)[C@H]2OC3(CCCCC3)O[C@H]21,8.66,20.8,19.6,58.3,13.5,26.8,2.21,5.47,–,–,–,–,–
O=C(CN(/C=C/C(=O)C(F)(F)F)c1ccccc1)c1ccc(Cl)cc1,31.2,91.9,28.2,64.6,16.1,34.2,30,> 100,–,–,–,–,–
CCn1c(=N)sc2nc3ccccc3n2c1=O,–,–,–,> 100,–,> 100,–,> 100,> 100,–,–,–,–
CC(=O)O[C@H](C[C@H](C(C)C)N(C)C(=O)[C@@H](NC(=O)[C@H]1CCCCN1C)C(C)C)c1cccc(C(=O)N[C@@H](Cc2ccccc2)C[C@H](C)C(=O)O)n1,0.0154,0.48,–,–,0.0321,> 25,0.0818,> 25,–,–,–,–,–
COc1cc(CN(c2ccc(C)cc2)C2OC(=O)c3ccccc32)cc(OC)c1OC (stereo unspecified),0.727,99.3,0.308,> 100,0.432,> 100,–,–,–,–,–,–,–
Nc1nc2c(ccc3ccccc32)s1,> 100,> 100,> 100,> 100,33.7,> 100,95.5,> 100,–,–,–,–,–
COc1cccc(NC(=O)c2sc3nc4c(cc3c2N)C(O)CCC4)c1 (stereo unspecified),0.274,> 100,0.325,> 49.9,0.23,> 100,0.727,> 100,–,–,–,–,–

SMILES,GI50 [1] [µM],TGI [1] [µM],GI50 [2] [µM],TGI [2] [µM],GI50 [3] [µM],TGI [3] [µM],GI50 [4] [µM],TGI [4] [µM],TGI [5] [µM],TGI [6] [µM],TGI [7] [µM],TGI [8] [µM],GI50 [5] [µM]
Nc1ccc(-c2ccc3ncc4ccc(=O)n(-c5cccc(C(F)(F)F)c5)c4c3c2)cn1,< 0.01,0.232,< 0.01,< 0.0253,< 0.01,5.38,< 0.01,< 0.01,–,–,–,–,–
COC(=O)N/N=C(\C)C(CN(C)C)C(c1ccccc1)c1c(O)c2ccccc2oc1=O (stereo unspecified),–,–,–,–,–,–,–,–,–,> 100,> 100,–,–
CCOC(=O)C1=C(C(=O)OCC)C2(c3ccccc3)N(O1)c1ccccc1C2(C)C (stereo unspecified),–,–,–,–,–,–,–,–,–,> 100,–,83.3,–
N#C/C(=C\c1ccccc1)C(NO)Nc1ccccc1 (stereo unspecified),–,–,–,–,–,–,–,–,–,> 100,–,> 100,–
C[C@H](NC(=O)c1c(C(F)F)nn(C)c1Oc1cccc(C(F)(F)F)c1)c1ccc(C(=O)O)cc1,> 100,> 100,> 100,> 100,> 100,> 100,> 100,> 100,–,–,–,–,–
CC1=C(C#N)C(/C=C(\Cl)c2ccc(F)cc2)C(C#N)=C(C)N1,> 100,> 100,> 100,> 100,> 100,> 100,> 100,> 100,–,–,–,–,–
NC(=S)N/N=C1/CN(c2ccc(Cl)c(Cl)c2)CC(=O)C1c1nc2ccccc2s1 (stereo unspecified),–,–,–,–,–,–,–,–,–,> 100,> 100,–,–
COc1ccc(-c2n[nH]nc2-c2cc(OC)c3c(c2)OCO3)cc1,0.0847,28.9,0.0219,3.72,0.0384,> 100,–,–,–,–,–,–,–
CC[C@@H](O)C[C@H]1CCC[C@@]2(C[C@@H]3OC(=O)/C=C/[C@@](C)(O)[C@@H](O)[C@H](C)[C@@H](O)[C@H](OC4CCC(N(C)C)C(C)O4)[C@@H](O)[C@](C)(O)CCCCC/C=C/[C@@H]4CC(C)(C)O[C@@]4(O)C[C@H](O2)[C@H]3C)O1 (stereo partly specified),–,29.2,–,33.5,–,15.7,–,26.3,20.8,–,–,–,–
CCN(CC)c1ccc(/C=N/NC(=O)CSc2nc3ccccc3c(=O)n2Cc2ccc(S(N)(=O)=O)cc2)c(O)c1,2.68,> 100,2.11,> 100,0.829,> 100,0.925,> 100,–,–,–,–,–
C=C1C(=O)O[C@H]2[C@H]1CC/C(COC(=O)NCCc1cccc(OC)c1)=C\CC[C@@]1(C)O[C@@H]21,1.51,3.12,3.43,21.6,2.3,5.54,1.61,4.03,–,–,–,–,–
Cc1ccc(O)c(NC2=C(Cl)C(=O)N(Cc3ccccc3)C2=O)c1,18.1,67.3,21.2,65.3,38.7,> 100,39,> 100,–,–,–,–,–
COc1ccc2c(c1)O/C(=C\c1cccc(OCC(=O)Nc3nc(C)c(C)s3)c1)C2=O,16.7,55.2,5.24,> 41.5,0.821,–,8.76,> 100,–,–,–,–,–
COc1ccc2nc3cccc([N+](=O)[O-])c3c(NCCNCCN(C)C)c2c1,0.418,1.06,0.175,0.558,–,0.293,0.168,7.93,0.502,–,–,–,0.176
CCc1nn2ncccc2c1-c1ccnc(NC2CC2)n1,> 25,> 25,> 18.5,> 25,> 25,> 25,> 25,> 25,–,–,–,–,–
Cc1cn2c(/C=N/N=C(N)N)c(-c3ccncc3)nc2s1,–,–,–,–,18.8,32.8,16.2,31.6,–,–,–,–,–
COc1cc2nc(-c3cccc4cccnc34)nc(NC3CCN(Cc4ccccc4)CC3)c2cc1OC,1.58,3.36,2.07,4.81,1.36,2.83,–,–,–,–,–,–,–
COC(=O)CC(=O)NCC1=CCC(=O)CC1,–,–,–,–,–,–,–,–,–,> 100,> 100,–,–
O=C1Nc2ccccc2/C1=C/c1cn(CC(O)Cn2cc(/C=C3\C(=O)Nc4ccccc43)c3ccccc32)c2ccccc12 (stereo unspecified),–,–,2.43,7.85,1.21,2.66,–,–,–,–,–,–,–
